According to ChEMBL document CHEMBL1201862, “PubChem BioAssay data set” (2004):
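In this assay, cells in 96-well plates receive the compound at five concentrations for 48 hours. Endpoints are linearly interpolated between the surrounding concentrations. The concentration for 50% growth inhibition is given as GI50.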 The source made the active and inactive calls. No stated cut-off is given here; in the data, active = GI50 up to about 1.1 µM and inactive = higher.

How the values were obtained:
Test in all cases: DTP human tumour cell line panel, 48 h
[1] = test system: Hs-578T
[2] = test system: RPMI-8226
[3] = test system: UACC-257
[4] = test system: MDA-MB-435
[5] = test system: MOLT-4
[6] = test system: U-251
[7] = test system: UO-31
[8] = test system: HL-60
[9] = test system: M14
[10] = test system: OVCAR-4
[11] = test system: NCI/ADR-RES
[12] = test system: COLO 205
[13] = test system: A498
[14] = test system: SF-268
[15] = test system: SW-620
[16] = test system: NCI-H23
[17] = test system: MDA-MB-231
[18] = test system: SN12C
[19] = test system: NCI-H522
[20] = test system: SF-539
[21] = test system: Malme-3M
[22] = test system: HT-29
[23] = test system: DU-145
[24] = test system: SNB-19
[25] = test system: CCRF-CEM
[26] = test system: HOP-92
[27] = test system: K562
[28] = test system: OVCAR-5
[29] = test system: KM12
[30] = test system: PC-3
[31] = test system: 786-0
[32] = test system: SNB-75
[33] = test system: SK-MEL-2
[34] = test system: SF-295
[35] = test system: BT-549
[36] = test system: TK-10
[37] = test system: HCT-15
[38] = test system: MCF7
[39] = test system: HCC 2998
[40] = test system: OVCAR-8
[41] = test system: ACHN
[42] = test system: MDA-N
[43] = test system: EKVX
[44] = test system: NCI-H226
[45] = test system: HCT-116
[46] = test system: IGROV-1
[47] = test system: LOX IMVI
[48] = test system: A549
[49] = test system: SR
[50] = test system: SK-OV-3
[51] = test system: SK-MEL-28
[52] = test system: CAKI-1
[53] = test system: NCI-H460
[54] = test system: RXF 393
[55] = test system: SK-MEL-5
[56] = test system: UACC-62

Compound: c1ccc2[nH]c3nc4ccccc4c-3cc2c1
- GI50 [1]: 966 nM (active)
- GI50 [2]: 327 nM (active)
- GI50 [3]: 637 nM (active)
- GI50 [4]: 540 nM (active)
- GI50 [5]: 94.2 nM (active)
- GI50 [6]: 454 nM (active)
- GI50 [7]: 597 nM (active)
- GI50 [8]: 192 nM (active)
- GI50 [9]: 536 nM (active)
- GI50 [10]: 1030 nM (active)
- GI50 [11]: 1280 nM (inactive)
- GI50 [12]: 207 nM (active)
- GI50 [13]: 3330 nM (inactive)
- GI50 [14]: 598 nM (active)
- GI50 [15]: 156 nM (active)
- GI50 [16]: 615 nM (active)
- GI50 [17]: 1240 nM (inactive)
- GI50 [18]: 630 nM (active)
- GI50 [19]: 82.4 nM (active)
- GI50 [20]: 367 nM (active)
- GI50 [21]: 920 nM (active)
- GI50 [22]: < 30.3 nM (active)
- GI50 [23]: 1260 nM (inactive)
- GI50 [24]: 785 nM (active)
- GI50 [25]: 197 nM (active)
- GI50 [26]: 7260 nM (inactive)
- GI50 [27]: 189 nM (active)
- GI50 [28]: 1690 nM (inactive)
- GI50 [29]: 348 nM (active)
- GI50 [30]: 232 nM (active)
- GI50 [31]: 19.9 nM (active)
- GI50 [32]: 2100 nM (inactive)
- GI50 [33]: 445 nM (active)
- GI50 [34]: 500 nM (active)
- GI50 [35]: 512 nM (active)
- GI50 [36]: 1540 nM (inactive)
- GI50 [37]: 229 nM
- GI50 [38]: 304 nM (active)
- GI50 [39]: 757 nM (active)
- GI50 [40]: 363 nM (active)
- GI50 [41]: 113 nM (active)
- GI50 [42]: 641 nM (active)
- GI50 [43]: 395 nM (active)
- GI50 [44]: 1020 nM (active)
- GI50 [45]: < 31.1 nM (active)
- GI50 [46]: 286 nM (active)
- GI50 [47]: 180 nM (active)
- GI50 [48]: 245 nM (active)
- GI50 [49]: 44.1 nM (active)
- GI50 [50]: 839 nM (active)
- GI50 [51]: 1310 nM (inactive)
- GI50 [52]: 524 nM (active)
- GI50 [53]: 128 nM (active)
- GI50 [54]: 457 nM (active)
- GI50 [55]: 698 nM (active)
- GI50 [56]: 632 nM (active)
